Patent US20250019385A1, “SPIROCYCLIC ANNULATED 2-AMINO-3-CYANO THIOPHENES AND DERIVATIVES FOR THE TREATMENT OF CANCER” (Boehringer Ingelheim International GmbH, priority 2023, published 2025)

How the values were obtained:
NCI-H727 cells = assay: NCI-H727 CTG proliferation assay (120 h) (lung cancer, G12V); assay type: cell-based; conditions: Homo sapiens
Description: (§1) NCI-H727 cells (ATCC No. CRL-5815) are dispensed into black 384-well plates, flat and clear bottom (Greiner, PNr. 781091) at a density of 500 cells per well in 60 μl RPMI ATCC-Formulation (PAN P04-18047)+10% FCS (fetal calf serum, HyClone, SH30084.03). Cells are incubated overnight at 37° C. in a humidified tissue culture incubator at 5% CO2. Compounds (10 mM stock in DMSO) are added at logarithmic dose series using the ECHO acoustic liquid handler system (Beckman Coulter), normalizing for added DMSO and including DMSO controls. All compound treatments are performed in technical duplicates. For the TO time point measurement, untreated cells are analyzed at the time of compound addition. Plates are incubated for 120 h, and cell viability is measured using CellTiter-Glo luminescent cell viability reagent (Promega product code G7570). Viability (stated as percent of control) is defined as relative luminescence units RLU of each well divided by the RLU of cells in DMSO controls. IC50 values are determined from viability measurements by non-linear regression using a four-parameter model.
(§2) IC50 values of representative compounds according to the invention measured with these assays in the indicated cell lines are presented in Table 46.

[1] = Metabolic (microsomal) stability assay, human liver microsomes (HLM); assay type: in vitro ADME; conditions: 1 μM test compound, predicted clearance as percent of liver blood flow
MKN1 cells = assay: MKN1 CTG proliferation assay (120 h) (gastric cancer, wt amplified); assay type: cell-based; conditions: Homo sapiens, MKN-1
Description: as §1, with “MKN1” for “NCI-H727”, “(JCRB0252)” for “(ATCC No. CRL-5815)”, “200” for “500”, “RPMI-1640” for “RPMI”, “(Gibco #A10491)+10%” for “(PAN P04-18047)+10%”
as §2

AsPC-1 cells = assay: AsPC-1 CTG proliferation assay (120 h) (pancreatic cancer, G12D); assay type: cell-based; conditions: Homo sapiens, ASPC1
Description: as §1, with “AsPC-1” for “NCI-H727”, “CRL-1682)” for “No. CRL-5815)”
as §2

NCI-H358 cells = assay: NCI-H358 CTG proliferation assay (120 h) (NSCLC, G12C); assay type: cell-based; conditions: Homo sapiens
Description: as §1, with “NCI-H358” for “NCI-H727”, “CRL-5807)” for “CRL-5815)”, “200” for “500”, “RPMI-1640” for “RPMI”, “(Gibco #A10491)+10%” for “(PAN P04-18047)+10%”, “serum).” for “serum, HyClone, SH30084.03).”
as §2

Row | SMILES | IC50 (NCI-H727 cells) [nM] | HLM QH [1] [%] | IC50 (MKN1 cells) [nM] | IC50 (AsPC-1 cells) [nM] | IC50 (NCI-H358 cells) [nM]
1 | C[C@H](Oc1nc(-c2onc3c2CCC[C@@]32CCCc3sc(N)c(C#N)c32)nc2c1ncn2[C@@H]1CCOC1)[C@@H]1CCCN1C [I-38] | 34 | 28 | 32 | 267 | 9
2 | CO[C@H]1C[C@@H](n2c(=O)n(C)c3c(O[C@@H](C)[C@@H]4CCCN4C)nc(-c4onc5c4CCC[C@@]54CCCc5sc(N)c(C#N)c54)nc32)C1 [I-31] | 38 | <24 | 987 | 1070 | 60
3 | CO[C@H]1CCN(C)[C@@H]1[C@H](C)Oc1nc(-c2onc3c2CCC[C@@]32CCCc3sc(N)c(C#N)c32)nc2c1n(C)c(=O)n2[C@@H]1CCOC1 [I-23] | 3 | 77 | 6 | 540 | 4
4 | CO[C@H]1C[C@H](n2c(=O)n(C)c3c(O[C@@H](C)[C@@H]4CCCN4C)nc(-c4onc5c4CCC[C@@]54CCCc5sc(N)c(C#N)c54)nc32)C1 [I-16] | 152 | <24 | 353 | 3990 | 141
5 | C[C@H](Oc1nc(-c2noc3c2CCC[C@@]32CCCc3sc(N)c(C#N)c32)nc2c1COC[C@@]21CCOC1)[C@@H]1CCCN1C [II-9a] | 22 | 29 | 209 | 1070 | 74
6 | C[C@H](Oc1nc(-c2noc3c2CCC[C@@]32CCCc3sc(N)c(C#N)c32)nc2c1cnn2[C@@H]1CCOC1)[C@@H]1CCCN1C [II-4] | 12 | 40 | 63 | 300 | 35
7 | CCn1c(=O)n([C@@H]2CCOC2)c2nc(-c3onc4c3CCC[C@@]43CCCc4sc(N)c(C#N)c43)nc(O[C@@H](C)[C@@H]3CCCN3C)c21 [I-21] | 4 | 45 | 22 | 327 | 3
8 | C[C@H](Oc1nc(-c2onc3c2CCC[C@@]32CCCc3sc(N)c(C#N)c32)nc2c1n(C)c(=O)n2[C@@H]1CCOC1)[C@@H]1CCCN1C [I-20] | 2 | 26 | 8 | 246 | 4
9 | C[C@H](Oc1nc(-c2noc3c2CCC[C@@]32CCCc3sc(N)c(C#N)c32)nc2c1CCO[C@]21CCOC1)[C@@H]1CCCN1C [II-9b] | 4 | 33 | 19 | 414 | 5
10 | CCn1c(=O)n([C@@H]2CCCOC2)c2nc(-c3onc4c3CCC[C@@]43CCCc4sc(N)c(C#N)c43)nc(OCC3(CN4CCCC4)CC3)c21 [I-35] | 159 | 53 | 978 | 4250 | 232
11 | C[C@H](Oc1nc(-c2onc3c2CCC[C@@]32CCCc3sc(N)c(C#N)c32)nc2c1COC[C@]21CCOC1)[C@@H]1CCCN1C [I-54] | 2 | 31 | 7 | 76 | 3
12 | C[C@H](Oc1nc(-c2onc3c2CCC[C@@]32CCCc3sc(N)c(C#N)c32)nc2c1n(C)c(=O)n2[C@@H]1CCCOC1)[C@@H]1CCCN1C [I-12] | 3 | <24 | 10 | 326 | 6
13 | CC(C)n1c(=O)n([C@@H]2CCOC2)c2nc(-c3onc4c3CCC[C@@]43CCCc4sc(N)c(C#N)c43)nc(O[C@@H](C)[C@@H]3CCCN3C)c21 [I-32] | 4 | 88 | 429 | 1500 | 32
14 | C[C@H](Oc1nc(-c2onc3c2CCC[C@@]32CCCc3sc(N)c(C#N)c32)nc2c1n(C)c(=O)n2[C@@H]1CCOC1)[C@@H]1CC[C@H](C)N1C [I-26] | 4 | 42 | 24 | 854 | 7
15 | C[C@H](Oc1nc(-c2onc3c2CCC[C@@]32CCCc3sc(N)c(C#N)c32)nc2c1n(C)c(=O)n2[C@@]12COC[C@@H]1C2)[C@@H]1CC[C@H](C)N1C [I-45] | 1 | 41 | 11 | 286 | 5

The remaining molecules from weak to strong by IC50 (NCI-H727 cells), led by results:

Row | IC50 (NCI-H727 cells) [nM] | HLM QH [1] [%] | IC50 (MKN1 cells) [nM] | IC50 (AsPC-1 cells) [nM] | IC50 (NCI-H358 cells) [nM] | SMILES
16 | 899 | 48 | 4150 | 8950 | 921 | CCn1c(=O)n([C@@H]2CCCOC2)c2nc(-c3onc4c3CCC[C@@]43CCCc4sc(N)c(C#N)c43)nc(OC[C@@]34CCCN3C[C@H](F)C4)c21 [I-33]
17 | 108 | 33 | 109 | 3470 | 42 | C[C@H](Oc1nc(-c2onc3c2CCC[C@@]32CCCc3sc(N)c(C#N)c32)nc2c1n(C)c(=O)n2C1CCOCC1)[C@@H]1CCCN1C [I-10]
18 | 36 | <24 | 155 | 1390 | 71 | C[C@H](Oc1nc(-c2onc3c2CCC[C@@]32CCCc3sc(N)c(C#N)c32)nc2c1cnn2[C@@H]1CCOC1)[C@@H]1CCCN1C [I-43]
19 | 21 | 37 | 239 | 1100 | 38 | CCn1c(=O)n([C@@H]2CCCOC2)c2nc(-c3onc4c3CCC[C@@]43CCCc4sc(N)c(C#N)c43)nc(O[C@@H](C)C34CCCN3CCC4)c21 [I-36]
20 | 17 | 37 | 217 | 500 | 17 | Cc1cc2c(O[C@@H](C)[C@@H]3CCCN3C)nc(-c3onc4c3CCC[C@@]43CCCc4sc(N)c(C#N)c43)nc2n1[C@@H]1CCOC1 [I-40]
21 | 13 | <24 | 11 | 2370 | 9 | C[C@H](Oc1nc(-c2onc3c2CCC[C@@]32CCCc3sc(N)c(C#N)c32)nc2c1[nH]c(=O)n2[C@@H]1CCCOC1)[C@@H]1CCCN1C [I-13]
22 | 9 | 33 | 48 | 1300 | 6 | C[C@H](Oc1nc(-c2onc3c2CCC[C@@]32CCCc3sc(N)c(C#N)c32)nc2c1n(C)c(=O)n2[C@@H]1CCOC1)C12CCCN1CCC2 [I-25]
23 | 5 | 80 | 14 | 236 | 8 | CO[C@H]1CCN(C)[C@@H]1[C@H](C)Oc1nc(-c2noc3c2CCC[C@@]32CCCc3sc(N)c(C#N)c32)nc2c1n(C)c(=O)n2[C@@H]1CCCOC1 [II-3]
24 | 2 | 34 | 9 | 292 | 6 | CO[C@@H]1C[C@@H]([C@H](C)Oc2nc(-c3onc4c3CCC[C@@]43CCCc4sc(N)c(C#N)c43)nc3c2n(C)c(=O)n3[C@@]23COC[C@@H]2C3)N(C)C1 [I-46]
